The values below come from publication PMC8494816 (Scientific Reports, 2021).

Data set [1] has as its system patients with RUCC. The conditions noted are these: cited from earlier work; for efficacy in treating RUCC patients: phase IIa setting.
For data set [2], the target named is P2X3 homotrimeric receptors. The arrangement: method as in PMID 30902655. The conditions noted are these: cited from earlier work.
The target of data set [3] is P2X2/3 heterotrimeric receptors. The arrangement: method as in PMID 30902655. The conditions noted are these: cited from earlier work.
Data set [4] has as its system animal models. The arrangement: method as in PMID 30902655. The conditions noted are these: cited from earlier work.
Data set [5] deals with T1, rP2X3 receptors (Rattus norvegicus, UniProt P49654).
T1 sequence (P49654 1-397): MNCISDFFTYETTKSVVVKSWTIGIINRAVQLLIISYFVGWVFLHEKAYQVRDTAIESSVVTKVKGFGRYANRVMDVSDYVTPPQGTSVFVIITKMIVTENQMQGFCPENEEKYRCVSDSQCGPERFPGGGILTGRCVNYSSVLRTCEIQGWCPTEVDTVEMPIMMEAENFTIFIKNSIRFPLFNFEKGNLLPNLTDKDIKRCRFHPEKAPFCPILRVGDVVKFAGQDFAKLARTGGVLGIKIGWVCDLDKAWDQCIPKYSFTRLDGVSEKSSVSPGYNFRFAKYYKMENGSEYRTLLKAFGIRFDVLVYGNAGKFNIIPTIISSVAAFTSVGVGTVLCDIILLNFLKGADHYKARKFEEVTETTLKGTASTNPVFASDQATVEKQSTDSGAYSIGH
Description: cell-based. The protocol: (§1) Cells were maintained in Dulbecco’s Modified Eagle Medium (DMEM) media (Sigma) supplemented with 10% fetal bovine serum (FBS) (Sigma) in a humidified incubator with 5% CO2 at 37 °C.
(§2) P2X receptor-induced changes in intracellular calcium levels were monitored using the calcium-chelating dye, Fluo-4AM (Molecular Probes), quantitated with a fluorescence imaging plate reader (FLEX/FLIPR station; Molecular Devices, Sunnyvale, CA, USA). Cells expressing P2X3 or P2X2/3 receptors were plated at a density of 15,000 cells/well in collagen-coated 384-well plates approximately 20 h before assay.

Data set [6] addresses T2, rP2X2/3 receptors (Rattus norvegicus, UniProt P49653+P49654).
T2 sequence (P49654 1-397): T1 sequence (P49654 1-397)
T2 sequence (P49653 1-472): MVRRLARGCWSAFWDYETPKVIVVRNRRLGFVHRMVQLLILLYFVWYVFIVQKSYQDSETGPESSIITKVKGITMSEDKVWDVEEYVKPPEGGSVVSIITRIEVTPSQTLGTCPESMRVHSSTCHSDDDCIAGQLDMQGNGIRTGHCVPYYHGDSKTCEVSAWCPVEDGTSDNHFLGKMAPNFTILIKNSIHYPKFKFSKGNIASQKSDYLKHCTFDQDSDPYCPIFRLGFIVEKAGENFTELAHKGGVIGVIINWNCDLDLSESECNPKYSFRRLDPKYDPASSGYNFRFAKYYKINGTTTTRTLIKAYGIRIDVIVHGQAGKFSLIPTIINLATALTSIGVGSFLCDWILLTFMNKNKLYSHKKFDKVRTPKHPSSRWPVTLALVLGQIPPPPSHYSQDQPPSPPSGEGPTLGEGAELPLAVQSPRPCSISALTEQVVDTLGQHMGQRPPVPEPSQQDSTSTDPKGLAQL
Description: FLIPR calcium flux assay, recombinant cells. Type of data set: cell-based. How it is done: as §1, §2
(In general: A change in cytosolic calcium serves as a functional read-out for many receptors and channels.)

The target of data set [7] is T3, native channels from DRG (predominately P2X3 receptors) (Rattus norvegicus, UniProt P49654).
T3 construct: native channels from both DRG (predominately P2X3 receptors) and nodose ganglia (NDG, predominately P2X2/3 receptors) rat tissues; from tissue; host or cells: primary neurons from dorsal root ganglia (L6–L4) of female Sprague Dawley rats
T3 sequence (P49654 1-397): T1 sequence (P49654 1-397)
Description: Whole-cell patch-clamp assay in rat neurons (DRG). Type of data set: cell-based. The conditions noted are these: female Sprague Dawley rat neurons, α,β-meATP 10 µM. On the technique in general: Patch clamp records ionic current or voltage across a cell membrane.
Description: Experiments were performed under the whole-cell patch-clamp configuration at a holding potential of – 80 mV at room temperature. […] The cells were dissociated with Accumax, centrifuged at 1000 rpm for 3 min, re-suspended in manual patch-clamp buffer, and then plated in dishes at a density of ~ 50,000 cells/dish. The currents were recorded using HEKA amplifiers and Patchmaster software (HEKA Electronics). The bath solution contained 140 mM NaCl, 5 mM KCl, 1 mM CaCl2, 2 mM MgCl2, 25 mM HEPES, and 10 mM glucose, at pH 7.4. The intracellular solution contained 140 mM CsCl, 10 mM HEPES, and 10 mM BAPTA, at pH 7.0. […] The recordings were performed in a cumulative manner with 4- or 8-min incubation times per compound concentration. Hexokinase (50 U/mL) was added to reduce channel desensitization when recording human and rat P2X3 receptor neurons. A seal resistance of minimum 250 MΩ and a series resistance of less than 20 MΩ were applied as quality control parameters. The effect at each concentration of antagonist was determined according to the following equation: % response = (100 * Idrug)/Icontrol), where Icontrol was the peak current amplitude of the last agonist addition prior to incubation with the antagonist, and Idrug was the peak current amplitude in the presence of an antagonist. Each concentration of antagonist was tested on a minimum of three independent cells. […]

For data set [8], the system named is neurogenic plasma extravasation in female Sprague Dawley rats. As to the kind of experiment: Rat model of uterine neurogenic inflammation (mustard oil, Evans blue). Type of data set: in vivo. The conditions noted are these: i.v. bolus 0.7 mg/kg then infusion 0.2 mg/kg/h, vs vehicle, P < 0.01.
Description: In this model, neurogenic inflammation was induced in anesthetized female Sprague Dawley rats by injecting mustard oil, an algogenic and sensitizing irritant, into the left uterine horn. Uterine inflammation leads to neurogenic plasma extravasation in the skin of the lower abdomen, which can be visualized via the injection of Evans blue dye[17]; the degree of inflammation can then be quantified by counting the number of blue dots.
Mustard oil (10% solution in mineral oil) was then injected into the left uterine horn (0.25 mL/rat), and 2-h later, Evans blue was injected intravenously. After 30 min, animals were killed by cardiac flushing with sterile saline. Uterine neurogenic inflammation was assessed by counting the number of blue dots on the ventral and dorsal sides in the abdominal region as an indicator of cutaneous neurogenic plasma extravasation following chemical uterine inflammation, as previously described[17].
All data are expressed as mean (or mean ± SD), unless otherwise indicated. Data were analyzed with either GraphPad Prism (v6.03, https://www.graphpad.com/scientific-software/prism/) or the Excel Fit software. […] For the rat neurogenic inflammation and dyspareunia models, data were analyzed by computing the mean number of skin dots or AUCs, respectively, for each treatment group and at each time point of the study (where appropriate). […]
Data set [9] can be described thus: Half-life in humans. The conditions noted are these: human, in vivo; data not shown.
Data set [10] in a line: Half-life in rats. The conditions noted are these: rat, in vivo; data not shown.
The target in data set [11] is T4, hP2X1 receptors (Homo sapiens, UniProt P51575).
T4 sequence (P51575 1-399): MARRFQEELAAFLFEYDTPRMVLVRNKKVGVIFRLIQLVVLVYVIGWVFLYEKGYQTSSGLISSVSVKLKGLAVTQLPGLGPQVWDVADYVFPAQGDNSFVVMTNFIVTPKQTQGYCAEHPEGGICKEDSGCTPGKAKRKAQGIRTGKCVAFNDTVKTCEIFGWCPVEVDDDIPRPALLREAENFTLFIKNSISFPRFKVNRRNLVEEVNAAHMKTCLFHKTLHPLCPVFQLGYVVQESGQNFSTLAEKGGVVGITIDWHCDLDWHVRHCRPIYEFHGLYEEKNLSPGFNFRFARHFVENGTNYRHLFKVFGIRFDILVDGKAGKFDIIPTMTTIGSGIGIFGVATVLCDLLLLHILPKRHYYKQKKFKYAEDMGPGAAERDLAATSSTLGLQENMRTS
Description: Recombinant cell line selectivity assay.

Data set [12] addresses T5, homotrimeric hP2X4 receptor (Homo sapiens, UniProt Q99571).
T5 sequence (Q99571 1-388): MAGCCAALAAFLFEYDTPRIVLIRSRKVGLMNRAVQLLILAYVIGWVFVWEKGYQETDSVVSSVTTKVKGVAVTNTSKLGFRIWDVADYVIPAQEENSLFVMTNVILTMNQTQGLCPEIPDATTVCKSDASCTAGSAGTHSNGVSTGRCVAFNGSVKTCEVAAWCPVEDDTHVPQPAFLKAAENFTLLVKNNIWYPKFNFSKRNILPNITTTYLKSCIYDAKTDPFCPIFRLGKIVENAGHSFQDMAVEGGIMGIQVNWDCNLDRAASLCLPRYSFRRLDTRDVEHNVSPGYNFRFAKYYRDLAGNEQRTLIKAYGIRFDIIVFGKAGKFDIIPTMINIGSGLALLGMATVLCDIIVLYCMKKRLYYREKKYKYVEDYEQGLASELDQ
Description: Recombinant cell line selectivity assay.

The target of data set [13] is T6, homotrimeric hP2X7 receptor (Homo sapiens, UniProt Q99572).
T6 sequence (Q99572 1-595): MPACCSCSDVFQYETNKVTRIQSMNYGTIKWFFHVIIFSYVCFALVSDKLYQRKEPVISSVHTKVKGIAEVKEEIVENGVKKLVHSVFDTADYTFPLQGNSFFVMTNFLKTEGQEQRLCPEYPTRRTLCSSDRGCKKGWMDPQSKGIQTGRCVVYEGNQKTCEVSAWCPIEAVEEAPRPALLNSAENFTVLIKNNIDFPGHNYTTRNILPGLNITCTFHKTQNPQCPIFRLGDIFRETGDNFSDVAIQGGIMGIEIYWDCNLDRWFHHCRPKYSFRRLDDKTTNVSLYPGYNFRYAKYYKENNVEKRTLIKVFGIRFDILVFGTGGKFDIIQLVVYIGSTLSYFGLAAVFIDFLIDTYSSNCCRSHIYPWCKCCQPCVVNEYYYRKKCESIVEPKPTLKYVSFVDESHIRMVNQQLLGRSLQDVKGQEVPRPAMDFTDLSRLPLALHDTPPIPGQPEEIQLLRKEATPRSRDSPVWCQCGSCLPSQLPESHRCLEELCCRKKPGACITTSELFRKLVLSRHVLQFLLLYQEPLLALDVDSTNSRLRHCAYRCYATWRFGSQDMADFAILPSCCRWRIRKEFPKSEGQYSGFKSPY
As to the kind of experiment: Recombinant cell line selectivity assay.

For data set [14], the system named is vaginal hyperalgesia in female Sprague Dawley rats. As to the kind of experiment: Rat dyspareunia model (VMR to vaginal distension). The conditions noted are these: vs vehicle.
Description: The visceromotor response (VMR) to vaginal distension using an inflated vaginal balloon was determined by counting the number of abdominal muscle contractions via electromyography (EMG) in conscious animals as an objective measure of vaginal sensitivity. […] The VMR response to vaginal distension was measured at week five (on-drug) and week six (one week off-drug) post-implantation of uterine horn pieces.
The VMR to vaginal distension was used in conscious animals as an objective measure of vaginal sensitivity. […] In addition, to measure the VMR response, two Teflon-coated wire electrodes (AS632; Cooner Wire, USA) were sutured in the external oblique abdominal muscle, and then tunneled subcutaneously to be exteriorized at the base of the neck for future access. […] On the day of VMR assessment, a lubricated small balloon (embolectomy catheter 5F, 1 cm in length; IsoMed, France) was inserted into the mid-vaginal canal. […] The magnitude of the VMR at each vaginal distension test was quantified by counting manually the number of EMG spike bursts (or abdominal muscle contractions) per period of 40 s (= 0.1 mL distension volume). […] For each animal, the cumulative number of abdominal contractions was calculated and plotted against vaginal distension volume, and the corresponding AUC was calculated. […]
All data are expressed as mean (or mean ± SD), unless otherwise indicated.
Data set [15] has as its system CFA-induced hyperalgesia in female C57BL/6 mice. Description: Mouse CFA-induced mechanical hyperalgesia model (von Frey). The conditions noted are these: oral twice daily, 48 h after CFA.
Description: In this model, mechanical hyperalgesia was induced in female C57BL/6 mice (n = 9) by injecting CFA into the plantar surface of one hind paw and assessed using von Frey filaments. The filaments were used to stimulate the hind paw, and a behavioral response was measured depending on the strength of the von Frey filament used (expressed in [g]). […] Compounds were administered orally, twice daily, starting one hour before CFA injection. […] Mechanical hyperalgesia was induced in female C57BL/6 mice by injecting 30 µL of undiluted CFA into the medial left plantar hind paw. […] Mice were placed individually in transparent Plexiglas enclosures set on a wire mesh floor for at least 60 min prior to testing. Mechanical response thresholds were determined using calibrated von Frey monofilaments applied to the plantar surface of hind paws. The simplified up-down method[69] was used to estimate the 50% withdrawal threshold of contralateral and ipsilateral paws. […] All dose formulations were letter coded and administered to the animals by a technician not involved in conducting the behavioral von Frey testing. All von Frey measurements were performed by a second experimenter who was blinded to the treatments received by the animals. Upon completion of the experiments, mice were euthanized by exposure to carbon dioxide.
Data set [16] has as its system CFA-induced mechanical hyperalgesia in male Sprague Dawley rats. Description: Rat CFA-induced mechanical hyperalgesia model (PAM, paw withdrawal threshold).
Description: Mechanical hyperalgesia was induced in 32 healthy male Sprague Dawley rats by injecting 25 µL of CFA (1 mg/mL) unilateral into the plantar surface of one hind paw. Mechanical hyperalgesia was measured using the Pressure Application Measurement apparatus (Ugo Basile, Comerio, Italy). Briefly, a linearly increasing pressure was applied to an area of ~ 50 mm^2 of the plantar side of the hind paw until a behavioral response (paw withdrawal) was observed, or until the pressure reached 1000-g force. The pressure at which the behavioral response occurred was recorded as the PWT. Both CFA-injected and contralateral PWTs were determined for each rat, in each treatment group, and at each time point of the study. […] All dose formulations were letter coded and administered to the animals by one technician not involved in conducting the behavioral PAM testing. All PAM measurements were performed by a second technician who was blinded to the treatments received by the animals.
All data are expressed as mean (or mean ± SD), unless otherwise indicated. Data were analyzed with either GraphPad Prism (v6.03, https://www.graphpad.com/scientific-software/prism/) or the Excel Fit software. For the rat hyperalgesia model, data were analyzed by computing the mean PWT for each treatment group, for CFA-injected and non-injected hind paws, and at each time point of the study. Mechanical hyperalgesia in vehicle control group was evaluated by carrying out an unpaired t-test between ipsilateral and contralateral paw values at each time point. The effect of the test compound on hyperalgesia was evaluated by performing a two-way repeated measures-ANOVA on ipsilateral paw values, followed by a Dunnett’s post-hoc test, provided that a main effect for treatment was detected. The effect of the test compound on contralateral response was evaluated following the same statistical procedure. […] A Grubbs’ test was also performed on individual values to reveal potential outliers. A p-value of < 0.05 was considered statistically significant.

Usually IC50 stands for the concentration needed to halve the response being measured. Consider `CNC(=O)c1cc(F)c(-c2nc3cc(C)ccn3c2C[C@H]2CN(C(=O)OC)CCO2)c(F)c1` [BLU-5937], for which the “primary endpoint in phase IIa study” value in data set [1] (subjects with RUCC) is “did not reach its desired primary endpoint”. For the same compound, the IC50 was 0.025 µM in [2] and greater than 24 µM in [3]. In data set [4], the “antitussive efficacy and taste disturbances in animal models” value is “antitussive efficacy with a lack of taste disturbances”.
As for `C[C@@H](Cn1c(=O)[nH]/c(=N\c2ccc(Oc3ccccn3)cc2)n(Cc2ccc(Cl)cc2)c1=O)C(=O)O` [S-600918], in data set [1] (patients with RUCC (n = 31)), the “cough reduction and taste disturbance” value is recorded as “reduce cough with a low incidence of taste disturbance”. The “efficacy in treating RUCC patients” value in data set [1] is given as “shown efficacy”.
On to `COc1cc(C(C)C)c(Oc2cnc(N)nc2N)cc1S(N)(=O)=O` [gefapixant], for which the “taste-related AEs, participants” value in [1] (latest phase III data, RUCC) is reported as 58–69%.
For orientation: half-life means the time in which the quantity being followed falls by half. Low readings indicate fast loss, high ones slow loss. Turning to `Cc1cnc(-c2cc(O[C@@H]3CCOC3)cc(C(=O)N[C@H](C)c3cnc(C(F)(F)F)nc3)c2)s1` [eliapixant], the IC50 in data set [5] is 0.004 µM; in [6], 0.023 µM; in [7], roughly 0.019 µM; in [11], 50 µM; in data set [12], 50 µM; in [13], 50 µM. Besides, the “number of blue dots on the skin (neurogenic plasma extravasation)” value in [8] is on record as “significantly reduced number of blue dots on the skin”. The values for the half-life in [9] and in [10] were greater than 24 h and roughly 2.8 h, respectively. In addition, the “tolerability and taste-related adverse events” value in [1] (phase IIa and Ph IIb study in patients with RUCC) is given as “well tolerated with a low rate of mild taste-related adverse events”. Also, the “efficacy in treating RUCC patients” value in data set [1] is listed as “shown efficacy”. Further, the “vaginal hyperalgesia (AUC of cumulative abdominal contractions), 1 week off drug” value in data set [14] (15 mg/kg oral twice daily weeks 4-5, 6 weeks post-implantation, P < 0.01) is “significantly decreased vaginal hyperalgesia”. For the same compound, the “vaginal hyperalgesia (AUC of cumulative abdominal contractions), on drug” value in [14] (15 mg/kg oral twice daily, 5 weeks post-implantation, P < 0.05) is listed as “significantly decreased vaginal hyperalgesia”. The “minimal effective oral dose, reversal of hyperalgesia in CFA-injected paw” value in [15] is on record as 5 mg/kg. In addition, the “receptor occupancy corresponding to plasma exposures at which efficacy (reversal of hyperalgesia > 50%) was observed” value in data set [16] (rat CFA model, data not shown) turned out to be 80%. The “effect on mechanical hyperalgesia (PWT), low dose” value in data set [16] (rat, oral 1 mg/kg, n = 8, P < 0.05) is “moderate and statistically significant at 2 h post-treatment”. For the same compound, the “effect on mechanical hyperalgesia (PWT), medium dose” value in [16] (rat, oral 3 mg/kg, n = 8, 2, 4, 6 h, P < 0.05 to 0.0001) is “robust and significant at each time point of the study”. Also, the “effect on mechanical hyperalgesia (PWT), high dose” value in data set [16] (rat, oral 10 mg/kg, n = 8, 2, 4, 6 h, P < 0.05 to 0.0001) was “robust and significant at each time point of the study”. Further, the “effect on mechanical hyperalgesia (Paw Withdrawal Threshold)” value in data set [16] (rat, oral, 1, 3, 10 mg/kg, 24 h after CFA, 2, 4, 6 h post-dose) is on record as “significantly reduced mechanical hyperalgesia in a dose-dependent manner”.
